Test results taken from patent US20140364405A1, “TREATMENT OF SEBORRHOEA” (McFarlane Marketing (Aust.)Pty. Ltd., priority 2011, published 2014).

Key:
[1] = system: skin sebum (skin surface lipids); test: Pilot clinical study: sebum reduction measured with Sebumeter SM810PC; type: in vivo, humans; details: for sebum reduction: one side of face, after 28 days
Description: (§1) In an initial pilot study in humans, 3 topical formulations were evaluated for effectiveness in reduction of sebum or treatment of acne.
(§2) The active substance in each of these formulations was: • Formulation 1—natural isolutrol (sodium 24R—scymnol sulphate). • Formulation 2—synthetic (24R)—scymnol. • Formulation 3—synthetic racemic (24RS)—scymnol.
(§3) In each formulation, the active substance was incorporated at 0.015% w/w into an oil-free topical lotion. In the pilot study, each test formulation was applied to one side of the face of a test subject, twice daily, for 28 days in the case of Formulations 1 and 2, and for 42 days in the case of Formulation 3. For each test formulation, 10 healthy female test subjects participated in the pilot study.
For the evaluation of sebum reduction, a Sebumeter SM810PC (Courage+Khazaka electronic GmbH) was used to obtain measurement of skin sebum (skin surface lipids) on days 0, 3, 7, 14, 21, 28, 35 and 42. To accomplish this, a special purpose film of the cartridge measuring head was applied for 30 seconds to the relevant skin area. The cartridge was inserted into the Sebumeter SM810 PC for electronic determination of film transparency variations. The LC-display of the instrument presents the result in terms of μg/cm^2. Duplicated measurements were obtained on the same site at each visit, and the results were averaged.

liver dysfunction = details: in vivo; cited from earlier work
seborrhoea = details: particularly when used topically; cited from earlier work
[2] = system: total acne lesion (pustules, papules and comedones) counts; test: Pilot clinical study: anti-acne treatment, total acne lesion counts; type: in vivo, humans; details: 0.015% w/w in oil-free topical lotion, twice daily, over the 42 day test period
Description: as §1, §2, §3
For evaluation of anti-acne treatment, reduction in total acne lesion (pustules, papules and comedones) counts was measured.

[3] = 0.015% w/w in oil-free topical lotion, twice daily

C[C@H](CC[C@@H](O)C(CO)CO)[C@H]1CC[C@H]2[C@@H]3[C@H](O)C[C@@H]4C[C@H](O)CC[C@]4(C)[C@H]3C[C@H](O)[C@]12C [(24R)-scymnol, 24R-(+)-5β-cholestane-3α,7α,12α,24,26,27-hexol]
sebum reduction [1, 3]: at least as effective in sebum reduction as the active substance of Formulation 1
treatment of liver dysfunction (liver dysfunction): activity in the treatment of liver dysfunction

C[C@H](CC[C@@H](O)C(CO)CO)[C@H]1CC[C@H]2[C@@H]3[C@H](O)C[C@@H]4C[C@H](O)CC[C@]4(C)[C@H]3C[C@H](O)[C@]12C [(24S)-scymnol]
effect of presence of the non-natural enantiomer in the racemate on the sebum study ([1]; as component of racemic (24RS)-scymnol of Formulation 3): no adverse effect in the sebum study

CC(CC[C@@H](O)C(CO)COS(=O)(=O)[O-])C1CCC2C3C(O)C[C@@H]4CC(O)CCC4(C)C3CC(O)C12C.[Na+] (stereo partly drawn) [sodium 24R-scymnol sulphate, 24(+)-3α, 7α,12α,24,26-pentahydroxy-coprostane-27-sodium sulphate ester]
treatment of seborrhoea (seborrhoea): effective in the treatment of seborrhoea

racemic (24RS,25RS) sodium scymnol sulphate [racemic (24RS)-scymnol]
sebum reduction [1, 3]: at least as effective in sebum reduction as the active substances of Formulations 1 and 2
sebum reduction when test period extended ([1]; 0.015% w/w in oil-free topical lotion, twice daily, test period extended to 42 days): sebum reduction continued
reduction of total acne lesion counts [2]: effective in reduction of total acne lesion counts
